The record followed here is US12227520B2 (priority 2019, dated 2025).

Like-named read-outs stand apart in the source and are kept apart here.

One data set concerns pLai RLuc reporter virus. Description: microbe, parasite or virus in culture. It counts as cell-based, HIV. The method in brief: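 MT-4 cells pre-infected 2 h at 37 °C with pLai RLuc virus, then exposed to 1:3 serial dilutions of compound in RPMI/10% FBS with or without 50% human serum for 72 h at 37 °C. Renilla luminescence read-out; serum shift = EC50(HS/CCM)/EC50(CCM).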

Another data set relates to HIV-1 (IIIB). In words: Antiviral assay in MT-4 cells (HIV MT-4 antiviral assay). The class given is cell-based. The settings on record: HIV-1 (IIIB) in MT-4 cells, 5 days incubation, read-out: EC50. The method in brief:
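MT-4 cells infected with HIV-1 IIIB (1:250 diluted stock) and exposed to 1:3 serially diluted compound in RPMI with 10% FBS. Viability read by CellTiter-Glo luminescence after 5 days at 37° C; mock-infected cells and 5 μM AZT as controls.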

Data set [1] is described as follows: Cytotoxicity assay in MT-4 cells. The class given is cell-based, human. The settings on record: human, uninfected MT-4 cells, 5 days incubation; read-out: CC50. In a few lines: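 Infected MT-4 cells (HIV-1 IIIB, fresh 1:250 dilution of concentrated stock) or mock-infected cells exposed to compounds for 5 days at 37 °C. Viability by CellTiter-Glo luminescence; 5 μM AZT positive control, no-drug negative control. Uninfected cells used for cytotoxicity, with 10 μM puromycin as base-level cytotoxicity control.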

[2] abbreviates: Human immunodeficiency virus 1, 72 h, read-out: Antiviral Serum Shift RLuc 50% HS, HS/CCM (RPMI media, 10% FBS, 50% HS, 1% P/S), 72-h incubation.
The mark [3] stands for this setting: Human immunodeficiency virus 1, 72 h, read-out: Antiviral Serum Shift RLuc CCM, CCM (RPMI media, 10% FBS, 1% P/S), 72-h incubation.
The mark [4] stands for this setting: Human immunodeficiency virus 1, IIIB, MT4, 120 h.

As a reminder, the CC50 is the concentration giving 50% cytotoxicity.

In the case of `O=C(NCc1cccc(Cl)c1F)c1cn2c(c(O)c1=O)C(=O)N1Cc3cc(F)c(F)cc3C[C@@H]2C1` [Example 143-1, (6R)—N-(3-chloro-2-fluorobenzyl)-9,10-difluoro-1-hydroxy-2,14-dioxo-2,7,12,14-tetrahydro-6H-6,13-methanobenzo[f]pyrido[1,2-a][1,4]diazonine-3-carboxamide], the values for the EC50 with pLai RLuc reporter virus (setting [2]), in the data set with pLai RLuc reporter virus (setting [3]) and in the data set on HIV-1 (IIIB) (setting [4]) were 132 nM, 4.75 nM and 22.7 nM, respectively. In data set [1], the CC50 at 5 days is above 50000 nM.

`O=C(NCc1c(F)cc(F)cc1F)c1cn2c(c(O)c1=O)C(=O)N1C[C@H](O)CC[C@H]2C1` (single isomer, unassigned) [Example 79-2]: the EC50 in the data set on pLai RLuc reporter virus (setting [2]) turned out to be 6.61 nM; in the data set on pLai RLuc reporter virus (setting [3]) it was 5.33 nM; with HIV-1 (IIIB) (setting [4]), 17.7 nM. For the same compound, the CC50 at 5 days in data set [1] was above 50000 nM.

For the compound `O=C(NCc1c(F)cc(F)cc1F)c1cn2c(c(O)c1=O)C(=O)N1CCCC(CF)C2C1` (single isomer, unassigned) [Example 194-1, 6-(fluoromethyl)-12-hydroxy-1,11-dioxo-N-(2,4,6-trifluorobenzyl)-1,4,5,6,7,11-hexahydro-3H-2,7-methanopyrido[1,2-a][1,4]diazonine-10-carboxamide], the EC50 was determined as 0.683 nM in the data set on pLai RLuc reporter virus (setting [3]); 222 nM in the data set with pLai RLuc reporter virus (read-out: Antiviral Serum Shift RLuc 50% HS, HS/CCM (RPMI media, 10% FBS, 50% HS, 1% P/S), 72-h incubation); 1.39 nM in the data set with HIV-1 (IIIB) (setting [4]). In addition, the CC50 at 5 days in data set [1] turned out to be 10800 nM.

As to `O=C(NCc1c(F)cc(F)cc1F)c1cn2c(c(O)c1=O)C(=O)N1C[C@@H]2CCc2ccc(F)cc21` [Example 86-2, (12S)-3-fluoro-7-hydroxy-6,8-dioxo-N-(2,4,6-trifluorobenzyl)-6,8,13,14-tetrahydro-12H-5,12-methanobenzo[e]pyrido[1,2-a][1,4]diazonine-9-carboxamide], the EC50 came to 0.5 nM in the data set with pLai RLuc reporter virus (setting [2]), 0.262 nM with pLai RLuc reporter virus (setting [3]) and 1.1 nM in the data set on HIV-1 (IIIB) (setting [4]). Besides, the CC50 at 5 days in data set [1] turned out to be 13700 nM.

Take `O=C(NCc1ccc(F)cc1F)c1cn2c(c(O)c1=O)C(=O)N1Cc3cc(F)c(F)cc3C[C@H]2C1` [Example 89, (6S)—N-(2,4-difluorobenzyl)-9,10-difluoro-1-hydroxy-2,14-dioxo-2,7,12,14-tetrahydro-6H-6,13-methanobenzo[f]pyrido[1,2-a][1,4]diazonine-3-carboxamide]: the values for the EC50 in the data set on pLai RLuc reporter virus (setting [2]), with pLai RLuc reporter virus (setting [3]) and in the data set with HIV-1 (IIIB) (setting [4]) were 4.39 nM, 0.669 nM and 2.38 nM, respectively. In addition, the CC50 at 5 days in data set [1] was above 47900 nM.

On to `O=C(NCc1ccc(F)cc1F)c1cn2c(c(O)c1=O)C(=O)N1CCCC[C@H]2C1` (single isomer, unassigned) [Example 25-2], for which the values for the EC50 in the data set with pLai RLuc reporter virus (setting [2]), in the data set with pLai RLuc reporter virus (setting [3]) and in the data set with HIV-1 (IIIB) (setting [4]) were 1.14 nM, 0.285 nM and 1.46 nM, respectively. The CC50 at 5 days in data set [1] stood at 10800 nM.

As for `O=C(NCc1c(F)cc(F)cc1F)c1cn2c(c(O)c1=O)C(=O)N1C[C@H]2CCc2cc(Cl)ccc21` [Example 48-2, (12R)-2-chloro-7-hydroxy-6,8-dioxo-N-(2,4,6-trifluorobenzyl)-6,8,13,14-tetrahydro-12H-5,12-methanobenzo[e]pyrido[1,2-a][1,4]diazonine-9-carboxamide], the EC50 in the data set with pLai RLuc reporter virus (setting [2]) came out at 1.52 nM; in the data set with pLai RLuc reporter virus (setting [3]), 0.358 nM; with HIV-1 (IIIB) (setting [4]) it was 2.38 nM. Further, in data set [1], the cytotoxic concentration (CC50) at 5 days stood at 17600 nM.

Take `O=C(NCc1ccc(F)cc1F)c1cn2c(c(O)c1=O)C(=O)N1CCCC[C@@]2(CF)C1` [Example 162-1, (7S)—N-(2,4-difluorobenzyl)-7-(fluoromethyl)-12-hydroxy-1,11-dioxo-1,4,5,6,7,11-hexahydro-3H-2,7-methanopyrido[1,2-a][1,4]diazonine-10-carboxamide]: the EC50 is 11.9 nM with pLai RLuc reporter virus (setting [2]), 0.067 nM with pLai RLuc reporter virus (setting [3]) and 1.14 nM with HIV-1 (IIIB) (setting [4]). Also, the CC50 at 5 days in data set [1] was found to be 16200 nM.

For `O=C(NCc1ccc(F)cc1F)c1cn2c(c(O)c1=O)C(=O)N1CCCC(F)(F)[C@@H]2C1` [Example 16-1, (7S)-N-(2,4-difluorobenzyl)-6,6-difluoro-12-hydroxy-1,11-dioxo-1,4,5,6,7,11-hexahydro-3H-2,7-methanopyrido[1,2-a][1,4]diazonine-10-carboxamide], the EC50 in the data set with pLai RLuc reporter virus (setting [2]) is 3.22 nM; in the data set with pLai RLuc reporter virus (setting [3]), 0.25 nM; in the data set with HIV-1 (IIIB) (setting [4]) it was 2.1 nM. Also, the CC50 at 5 days in data set [1] worked out at 14400 nM.

As for `O=C(NCc1ccc(F)c(Cl)c1F)c1cn2c(c(O)c1=O)C(=O)N1CC2CCc2cc(F)ccc21` (stereo not shown) [Example 68, N-(3-chloro-2,4-difluorobenzyl)-2-fluoro-7-hydroxy-6,8-dioxo-6,8,13,14-tetrahydro-12H-5,12-methanobenzo[e]pyrido[1,2-a][1,4]diazonine-9-carboxamide], the EC50 in the data set with pLai RLuc reporter virus (setting [2]) came to 1.17 nM; with pLai RLuc reporter virus (setting [3]) it was 0.279 nM; with HIV-1 (IIIB) (setting [4]), 1.2 nM. In addition, the CC50 at 5 days in data set [1] is 3580 nM.

Turning to `O=C(NCc1c(F)cc(F)cc1F)c1cn2c(c(O)c1=O)C(=O)N1CCC[C@H](Cl)[C@H]2C1` (single isomer, unassigned) [Example 72-1], the EC50 with pLai RLuc reporter virus (setting [2]) worked out at 5.36 nM; in the data set with pLai RLuc reporter virus (setting [3]) it was 0.281 nM; with HIV-1 (IIIB) (setting [4]), 1.57 nM. Besides, in data set [1], the CC50 at 5 days worked out at 9990 nM.

As to `O=C(NCc1ccc(F)cc1F)c1cn2c(c(O)c1=O)C(=O)N1CCCC3(CC3)[C@H]2C1` [Example 57-1, (7'S)—N-(2,4-difluorobenzyl)-12′-hydroxy-1′,11′-dioxo-1′,4′,5′,11′-tetrahydro-3′H,7′H-spiro[cyclopropane-1,6′-[2,7]methanopyrido[1,2-a][1,4]diazonine]-10′-carboxamide], the EC50 was 2.36 nM with pLai RLuc reporter virus (setting [2]), 0.228 nM with pLai RLuc reporter virus (setting [3]) and 1.22 nM with HIV-1 (IIIB) (setting [4]). In addition, the CC50 at 5 days in data set [1] turned out to be 6900 nM.

In the case of `O=C(NCc1ccc(F)cc1F)c1cn2c(c(O)c1=O)C(=O)N1CCCC[C@@H]2C1` (single isomer, unassigned) [Example 25-1], the EC50 in the data set on pLai RLuc reporter virus (setting [2]) worked out at 36.6 nM; with pLai RLuc reporter virus (setting [3]) it was 0.42 nM; in the data set with HIV-1 (IIIB) (setting [4]), 1.3 nM. For the same compound, in data set [1], the CC50 at 5 days was 11500 nM.

Turning to `C[C@H]1C[C@H]2CN(C(=O)c3c(O)c(=O)c(C(=O)NCc4c(F)cc(F)cc4F)cn32)[C@@H](C)C1` [Example 142-2, (3S,5R,7S)-12-hydroxy-3,5-dimethyl-1,11-dioxo-N-(2,4,6-trifluorobenzyl)-1,4,5,6,7,11-hexahydro-3H-2,7-methanopyrido[1,2-a][1,4]diazonine-10-carboxamide], the figures for the EC50 with pLai RLuc reporter virus (setting [2]), with pLai RLuc reporter virus (setting [3]) and with HIV-1 (IIIB) (setting [4]) were 2.81 nM, 0.363 nM and 1.87 nM, respectively. Further, the CC50 at 5 days in data set [1] was found to be 13600 nM.

`C[C@@H]1CO[C@H](C)[C@H]2CN1C(=O)c1c(O)c(=O)c(C(=O)NCc3c(F)cc(F)cc3F)cn12` [Example 196, (3R,6R,7R)-12-hydroxy-3,6-dimethyl-1,11-dioxo-N-(2,4,6-trifluorobenzyl)-1,3,4,6,7,11-hexahydro-2,7-methanopyrido[1,2-d][1,4,7]oxadiazonine-10-carboxamide]: the EC50 with pLai RLuc reporter virus (setting [2]) amounted to 14.3 nM; in the data set with pLai RLuc reporter virus (setting [3]), 0.469 nM; with HIV-1 (IIIB) (setting [4]), 2.08 nM. Besides, the CC50 at 5 days in data set [1] was 25900 nM.

Turning to `O=C(NCc1ccc(F)cc1F)c1cn2c(c(O)c1=O)C(=O)N1C[C@H]2CCc2cc(Cl)ccc21` [Example 49-2, (12R)-2-chloro-N-(2,4-difluorobenzyl)-7-hydroxy-6,8-dioxo-6,8,13,14-tetrahydro-12H-5,12-methanobenzo[e]pyrido[1,2-a][1,4]diazonine-9-carboxamide], the EC50 was determined as 1.11 nM in the data set with pLai RLuc reporter virus (setting [2]), 0.202 nM with pLai RLuc reporter virus (setting [3]) and 2.38 nM with HIV-1 (IIIB) (setting [4]). Besides, the CC50 at 5 days in data set [1] is 7200 nM.

`C[C@H]1CC[C@H]2CN(C(=O)c3c(O)c(=O)c(C(=O)NCc4c(F)cc(F)cc4F)cn32)[C@H]1C` [Example 108-2, (3S,4S,7S)-12-hydroxy-3,4-dimethyl-1,11-dioxo-N-(2,4,6-trifluorobenzyl)-1,4,5,6,7,11-hexahydro-3H-2,7-methanopyrido[1,2-a][1,4]diazonine-10-carboxamide]: the EC50 amounted to 1.55 nM in the data set with pLai RLuc reporter virus (setting [2]), 0.335 nM in the data set with pLai RLuc reporter virus (setting [3]) and 0.917 nM in the data set with HIV-1 (IIIB) (setting [4]). Further, in data set [1], the half-maximal cytotoxic concentration (CC50) at 5 days was found to be 11800 nM.

Turning to `O=C(NCc1ccc(F)cc1F)c1cn2c(c(O)c1=O)C(=O)N1CCCC[C@]2(CF)C1` [Example 162-2, (7R)—N-(2,4-difluorobenzyl)-7-(fluoromethyl)-12-hydroxy-1,11-dioxo-1,4,5,6,7,11-hexahydro-3H-2,7-methanopyrido[1,2-a][1,4]diazonine-10-carboxamide], the values for the EC50 with pLai RLuc reporter virus (setting [2]), with pLai RLuc reporter virus (setting [3]) and with HIV-1 (IIIB) (setting [4]) were 15.3 nM, 0.118 nM and 2.58 nM, respectively. Also, in data set [1], the half-maximal cytotoxic concentration (CC50) at 5 days was found to be 14400 nM.

Consider `O=C(NCc1c(F)cc(F)cc1F)c1cn2c(c(O)c1=O)C(=O)N1CC2CCc2ccccc21` (single isomer, unassigned) [Example 38-1], for which the results for the EC50 in the data set with pLai RLuc reporter virus (setting [2]), with pLai RLuc reporter virus (setting [3]) and in the data set on HIV-1 (IIIB) were 360 nM, 2.64 nM and 16.3 nM, respectively. For the same compound, the 50% cytotoxic concentration (CC50) at 5 days in data set [1] amounted to 11000 nM.
